Data: patent publication US10947242B2, “[1,2,4]triazolo[1,5and#8208;A]pyrimidine compounds as PDE2 inhibitors” (Janssen Pharmaceutica NV, priority 2016, dated 2021)
Read-outs that look alike come from different tables or passages of the source.

Key:
[1] = target: T1, Human recombinant PDE2A (hPDE2A) (Homo sapiens, UniProt O00408); assay: In vitro assay PDE2A (SPA, 3H-cGMP hydrolysis); assay type: biochemical; settings: for IC50: read-out: hPDE2A pIC50 (converted); for Emax: read-out: hPDE2A Emax
T1 construct: His tag (inferred from metal chelate purification); made in house; host or cells: Sf9 insect cells (baculovirus)
T1 sequence (O00408 whole entry): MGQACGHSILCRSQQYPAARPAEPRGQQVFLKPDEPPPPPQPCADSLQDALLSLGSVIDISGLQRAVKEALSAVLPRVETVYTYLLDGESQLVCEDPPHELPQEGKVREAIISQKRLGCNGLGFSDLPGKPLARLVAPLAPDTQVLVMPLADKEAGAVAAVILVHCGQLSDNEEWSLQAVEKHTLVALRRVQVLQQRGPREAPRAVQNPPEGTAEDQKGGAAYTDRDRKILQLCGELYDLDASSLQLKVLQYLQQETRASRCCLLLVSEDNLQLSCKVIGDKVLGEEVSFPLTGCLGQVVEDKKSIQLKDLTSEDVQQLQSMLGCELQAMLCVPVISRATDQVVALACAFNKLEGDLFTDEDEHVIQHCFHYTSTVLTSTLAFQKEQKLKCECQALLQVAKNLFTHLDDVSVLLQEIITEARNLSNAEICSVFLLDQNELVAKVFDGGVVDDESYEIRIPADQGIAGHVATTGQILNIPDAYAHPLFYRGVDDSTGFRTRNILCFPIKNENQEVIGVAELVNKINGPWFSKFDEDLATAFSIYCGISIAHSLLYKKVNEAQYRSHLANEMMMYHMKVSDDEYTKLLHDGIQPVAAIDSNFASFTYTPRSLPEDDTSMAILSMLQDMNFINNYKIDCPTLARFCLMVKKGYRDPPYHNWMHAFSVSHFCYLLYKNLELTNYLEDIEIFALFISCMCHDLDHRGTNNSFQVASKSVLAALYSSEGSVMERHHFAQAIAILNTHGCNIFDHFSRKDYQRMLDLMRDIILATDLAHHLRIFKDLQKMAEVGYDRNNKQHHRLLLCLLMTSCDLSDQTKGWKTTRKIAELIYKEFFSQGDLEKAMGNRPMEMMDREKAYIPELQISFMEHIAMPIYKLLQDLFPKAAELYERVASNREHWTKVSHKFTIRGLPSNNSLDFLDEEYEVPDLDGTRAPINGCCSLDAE

[2] = target: T2, Human recombinant PDE3A (hPDE3A) (Homo sapiens, UniProt Q14432); assay: In vitro assay PDE3A (SPA, 3H-cAMP hydrolysis); assay type: biochemical; settings: for IC50: hPDE3B pIC50, read-out: pIC50 (converted); for Emax: read-out: hPDE3B Emax, read-out: Emax;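 as to all read-outs here: the method names PDE3A and the table heading PDE3B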
T2 construct: purchased Scottish Biomedical; host or cells: Sf9 insect cells
T2 sequence (Q14432 whole entry): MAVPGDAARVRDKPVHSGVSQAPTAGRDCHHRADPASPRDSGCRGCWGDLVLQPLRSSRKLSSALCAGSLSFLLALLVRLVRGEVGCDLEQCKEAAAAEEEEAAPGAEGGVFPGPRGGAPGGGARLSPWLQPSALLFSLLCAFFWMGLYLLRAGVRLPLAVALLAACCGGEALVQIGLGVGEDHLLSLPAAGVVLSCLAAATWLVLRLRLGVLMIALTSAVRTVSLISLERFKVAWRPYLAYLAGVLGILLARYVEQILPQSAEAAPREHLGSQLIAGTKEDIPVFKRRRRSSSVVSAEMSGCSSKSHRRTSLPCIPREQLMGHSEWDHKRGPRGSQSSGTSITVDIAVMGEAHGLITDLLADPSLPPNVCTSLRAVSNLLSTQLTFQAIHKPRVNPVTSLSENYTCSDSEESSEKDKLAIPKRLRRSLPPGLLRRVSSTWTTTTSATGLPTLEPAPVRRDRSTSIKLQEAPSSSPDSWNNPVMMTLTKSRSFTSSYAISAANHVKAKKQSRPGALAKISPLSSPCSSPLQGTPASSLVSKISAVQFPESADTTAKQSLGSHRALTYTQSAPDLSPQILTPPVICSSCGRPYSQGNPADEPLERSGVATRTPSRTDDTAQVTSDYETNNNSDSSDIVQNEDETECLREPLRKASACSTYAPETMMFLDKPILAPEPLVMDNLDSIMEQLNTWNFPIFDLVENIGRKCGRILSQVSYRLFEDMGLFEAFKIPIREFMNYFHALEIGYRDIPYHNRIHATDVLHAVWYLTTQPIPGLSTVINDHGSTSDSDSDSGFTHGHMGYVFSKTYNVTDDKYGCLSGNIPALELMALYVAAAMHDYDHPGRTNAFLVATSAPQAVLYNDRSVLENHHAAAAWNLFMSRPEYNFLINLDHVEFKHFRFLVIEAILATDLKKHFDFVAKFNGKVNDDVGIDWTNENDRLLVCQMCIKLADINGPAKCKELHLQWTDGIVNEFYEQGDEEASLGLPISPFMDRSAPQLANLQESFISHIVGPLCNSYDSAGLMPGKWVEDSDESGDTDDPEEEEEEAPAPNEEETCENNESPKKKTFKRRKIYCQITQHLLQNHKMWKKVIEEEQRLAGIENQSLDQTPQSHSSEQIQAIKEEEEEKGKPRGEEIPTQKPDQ
Procedure, shortened: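 Radiometric SPA measuring [3H]-cAMP hydrolysis (0.4 μM cAMP, 2.4 μCi/ml) over 60 min at room temperature, in Tris pH 7.8 buffer with MgCl2 and EGTA, 1% DMSO. Enzyme: recombinant human brain PDE3A expressed in Sf9 cells, used as partially purified lysate. Counts compared with enzyme-free blanks and vehicle controls.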

[3] = target: T3, Human recombinant PDE10A (hPDE10A) (Homo sapiens, UniProt Q9Y233); assay: In vitro assay PDE10A, human clone (SPA, 3H-cAMP hydrolysis); assay type: biochemical
T3 construct: His tag (inferred from metal chelate purification); made in house; host or cells: Sf9 insect cells (baculovirus)
T3 sequence (Q9Y233 267-1055): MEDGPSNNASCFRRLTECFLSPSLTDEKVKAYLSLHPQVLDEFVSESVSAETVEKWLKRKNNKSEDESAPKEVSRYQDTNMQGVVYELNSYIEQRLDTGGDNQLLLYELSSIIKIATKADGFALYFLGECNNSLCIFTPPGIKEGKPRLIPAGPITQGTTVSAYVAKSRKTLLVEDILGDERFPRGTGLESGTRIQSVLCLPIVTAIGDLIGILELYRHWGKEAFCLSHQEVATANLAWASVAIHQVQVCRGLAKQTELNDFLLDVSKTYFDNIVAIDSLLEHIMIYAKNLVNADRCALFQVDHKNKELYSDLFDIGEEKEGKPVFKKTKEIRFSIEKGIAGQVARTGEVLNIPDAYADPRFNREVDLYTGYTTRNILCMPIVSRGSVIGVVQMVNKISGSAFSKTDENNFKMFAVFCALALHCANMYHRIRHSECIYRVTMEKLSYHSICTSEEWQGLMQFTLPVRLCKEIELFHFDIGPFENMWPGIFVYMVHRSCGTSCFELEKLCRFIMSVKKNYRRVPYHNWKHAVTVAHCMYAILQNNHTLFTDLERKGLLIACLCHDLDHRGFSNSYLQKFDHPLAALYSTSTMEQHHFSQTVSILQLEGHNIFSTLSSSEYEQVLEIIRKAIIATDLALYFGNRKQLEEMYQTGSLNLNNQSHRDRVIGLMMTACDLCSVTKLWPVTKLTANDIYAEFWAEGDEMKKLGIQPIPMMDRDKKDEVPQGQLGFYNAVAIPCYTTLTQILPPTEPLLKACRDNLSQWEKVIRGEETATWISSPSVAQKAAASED
Procedure, shortened: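 Hydrolysis of 3H-cAMP (60 nM cAMP, 0.008 μCi tracer) proceeded for 60 min at room temperature, with the product detected by SPA bead scintillation counting. The enzyme was hPDE10A from baculovirus-infected Sf9 cells in Tris pH 7.8 buffer with MgCl2 and EGTA, and compounds were at 1% DMSO final. Blanks lacked enzyme.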

[4] = target: T4, PDE2A (Rattus norvegicus, UniProt Q01062); assay: PDE2 occupancy by test compounds, ex-vivo autoradiography with [3H]B-17a; assay type: in vivo, Male Wistar rats; settings: 10 mg/kg, percentage receptor occupancy, ex-vivo autoradiography, striatum
T4 construct: Twenty μm-thick striatal sections were cut; from tissue; host or cells: rat brain, striatal sections
T4 sequence (Q01062 1-928): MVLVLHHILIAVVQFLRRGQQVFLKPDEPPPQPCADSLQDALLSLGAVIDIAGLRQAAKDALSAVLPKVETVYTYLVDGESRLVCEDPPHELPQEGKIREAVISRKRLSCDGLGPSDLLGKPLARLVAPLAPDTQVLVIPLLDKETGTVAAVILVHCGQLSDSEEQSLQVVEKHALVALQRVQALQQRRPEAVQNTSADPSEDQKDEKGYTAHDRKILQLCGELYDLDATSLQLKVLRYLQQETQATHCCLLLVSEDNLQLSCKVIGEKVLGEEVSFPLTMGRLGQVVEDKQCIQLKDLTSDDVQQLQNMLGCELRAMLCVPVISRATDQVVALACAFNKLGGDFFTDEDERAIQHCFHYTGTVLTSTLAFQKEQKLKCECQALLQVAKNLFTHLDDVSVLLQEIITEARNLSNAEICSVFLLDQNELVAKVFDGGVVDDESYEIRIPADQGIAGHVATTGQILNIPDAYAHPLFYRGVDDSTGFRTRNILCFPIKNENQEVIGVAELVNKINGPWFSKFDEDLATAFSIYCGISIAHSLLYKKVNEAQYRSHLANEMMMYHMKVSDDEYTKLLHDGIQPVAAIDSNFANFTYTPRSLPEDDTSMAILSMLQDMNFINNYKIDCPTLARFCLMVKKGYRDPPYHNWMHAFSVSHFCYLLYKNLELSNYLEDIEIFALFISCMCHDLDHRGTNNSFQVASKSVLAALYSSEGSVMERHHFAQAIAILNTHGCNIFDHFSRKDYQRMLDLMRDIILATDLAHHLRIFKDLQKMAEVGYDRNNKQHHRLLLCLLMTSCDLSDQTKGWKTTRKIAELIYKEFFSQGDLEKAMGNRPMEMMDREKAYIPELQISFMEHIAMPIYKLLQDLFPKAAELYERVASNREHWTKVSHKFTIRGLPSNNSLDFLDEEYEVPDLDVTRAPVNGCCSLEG

[5] = human recombinant PDE2A, 10 μM cGMP substrate
[6] = human clone (h), default, read-out: hPDE10A2 Emax
[7] = human clone (h), default, read-out: hPDE10A2 pIC50 (converted)
[8] = human clone by default (no (r) mark), read-out: hPDE10A2 or rPDE10A2 Emax
[9] = human clone by default (no (r) mark), read-out: hPDE10A2 or rPDE10A2 pIC50 (converted)

SMILES | IC50 [1, 5] [nM] | Emax ([1]; human recombinant PDE2A) [%] | Emax [1] [%] | IC50 [1] [nM] | IC50 [2] [nM] | Emax [2] [%] | Emax [3, 6] [%] | IC50 [3, 7] [nM] | melting point [°C] | Emax [3, 8] [%] | IC50 [3, 9] [nM] | receptor occupancy at 10 mg/kg ([4]; sc, route SC (subcutaneous)) [%] | receptor occupancy at 10 mg/kg ([4]; po, route PO (oral)) [%] | receptor occupancy at 10 mg/kg ([4]; route PO (oral)) [%]
C[C@@H]1CCN(C(=O)c2ccc(F)c(C(F)(F)F)c2)C[C@H]1c1cc(C(F)F)nc2ncnn12 [Compound 194] | 18.6 | 99 | 99 | 18.6 | 4570 | 57 | 97 | 263 | 167.52 |  |  |  |  | 
C[C@@H]1CCN(C(=O)c2ccc(Cl)c(Cl)c2)C[C@H]1c1cc(C(F)F)nc2ncnn12 [Compound 111] | 0.977 | 100 | 100 | 0.977 | 1050 | 92 | 99 | 38 | 188.75 |  |  |  |  | 
C[C@@H]1CCN(C(=O)c2cnc3c(Cl)cccc3c2)C[C@H]1c1cc(C(F)F)nc2ncnn12 [Compound 329] |  |  | 100 | 0.55 | 204 | 95 |  |  | 227.79 | 100 | 21.4 |  |  | 
C[C@H]1CCN(C(=O)c2ccc3occc3c2)C[C@@H]1c1cc(C(F)F)nc2ncnn12 [Compound 221] |  |  |  |  |  |  |  |  | 122.37 |  |  |  |  | 
C[C@@H]1CCN(C(=O)c2ccc(O)c(C#N)c2)C[C@H]1c1cc(C(F)F)nc2ncnn12 [Compound 231] | 1.35 | 97 | 97 | 1.35 | 9120 | 57 | 100 | 19.5 |  | 100 | 19.5 | -13 |  | 
Cc1nc(C(=O)N2CC[C@H](C)[C@H](c3cc(C(F)F)nc4ncnn34)C2)ccc1F [Compound 223] | 195 | 98 | 98 | 195 | > 10000 | 19 | 71 | 3470 |  | 71 | 3470 |  | 19 | 
C[C@@H]1CCN(C(=O)c2ccc(F)c(O)c2)C[C@H]1c1cc(C(F)F)nc2ncnn12 [Compound 186] | 10.7 | 100 | 100 | 10.7 | 6030 | 69 | 95 | 339 |  |  |  | 8 |  | 
Cc1cc(C(=O)N2CC[C@@H](C)[C@H](c3cc(C(F)F)nc4ncnn34)C2)c(C(F)(F)F)cn1 [Compound 41] | 13.8 | 99 | 99 | 13.8 | > 10000 | 17 | 72 | 4170 |  |  |  |  | 8 | 
COc1cc(C(=O)N2CC[C@@H](C)[C@H](c3cc(C(F)F)nc4ncnn34)C2)c(C)cn1 [Compound 53] | 5.62 | 100 | 100 | 5.62 | 6760 | 62 | 89 | 776 |  |  |  |  | 22 | 
Cc1nc2ccc(C(=O)N3[C@H]4CC[C@H](c5cc(C(F)F)nc6ncnn56)[C@@H]3CC4)cc2o1 [Compound 303] |  |  | 99 | 7.08 | 6610 | 57 |  |  |  | 95 | 537 |  |  | 17
C[C@@H]1CCN(C(=O)c2ccnc(Cl)c2)C[C@H]1c1cc(C(F)F)nc2ncnn12 [Compound 42] | 1.15 | 100 | 100 | 1.15 | > 10000 | 48 | 95 | 316 |  |  |  |  | 54 | 
Cc1nc2ccc(C(=O)N3[C@H]4CC[C@H](c5cc(C(F)F)nc6ncnn56)[C@@H]3CC4)cc2s1 [Compound 368] |  |  | 101 | 6.17 | 6460 | 61 |  |  |  | 99 | 251 |  |  | 11
Cc1cnc(Cl)cc1C(=O)N1CC[C@@H](C)[C@H](c2cc(C(F)F)nc3ncnn23)C1 [Compound 27] | 0.912 | 100 | 100 | 0.912 | > 10000 | 37 | 88 | 1100 |  |  |  |  | 34 | 
COc1cc(C(=O)N2[C@H]3CC[C@H](c4cc(C(F)F)nc5ncnn45)[C@@H]2CC3)cc(OC)n1 [Compound 301] |  |  | 100 | 8.13 | 6310 | 62 |  |  |  | 89 | 1260 |  |  | -7
C[C@@H]1CCN(C(=O)c2cc3c(nc2Cl)CCCC3)C[C@H]1c1cc(C(F)F)nc2ncnn12 [Compound 170] | 4.57 | 100 | 100 | 4.57 | 2140 | 84 | 84 | 1290 |  |  |  |  | 1 | 
Cc1nc2cc(C(=O)N3CC[C@@H](C)[C@H](c4cc(C(F)F)nc5ncnn45)C3)ccc2o1 [Compound 188] | 8.51 | 99 | 99 | 8.51 | 1550 | 87 | 98 | 209 |  |  |  | 2 |  | 
C[C@@H]1CCN(C(=O)c2noc3ccccc23)C[C@H]1c1cc(C(F)F)nc2ncnn12 [Compound 187] | 17.8 | 99 | 99 | 17.8 | 3470 | 74 | 95 | 427 |  |  |  | 0 |  | 
C[C@@H]1CCN(C(=O)c2ccc3c(c2)OCCC3)C[C@H]1c1cc(C(F)F)nc2ncnn12 [Compound 96] | 0.55 | 100 | 100 | 0.55 | 398 | 73 | 95 | 33.1 |  |  |  |  | 1 | 
Cn1ccc2c(F)c(C(=O)N3[C@H]4CC[C@H](c5cc(C(F)F)nc6ncnn56)[C@@H]3CC4)ccc21 |  |  |  |  |  |  |  |  | 220.89 |  |  |  |  | 
COc1cc(C(=O)N2CC[C@@H](C)[C@H](c3cc(C(F)F)nc4ncnn34)C2)ccc1F [Compound 195] | 4.47 | 98 | 98 | 4.47 | 5620 | 70 | 93 | 372 |  |  |  | -13 | -7 | 
Cc1cc(C(=O)N2[C@H]3CC[C@H](c4cc(C(F)F)nc5ncnn45)[C@@H]2CC3)cnc1C [Compound 366] |  |  | 99 | 10.2 | > 10000 | 22 |  |  |  | 64 | 5750 |  |  | 18
C[C@@H]1CCN(C(=O)c2cccc(C#N)c2)C[C@H]1c1cc(C(F)F)nc2ncnn12 [Compound 197] | 10.2 | 98 | 98 | 10.2 | > 10000 | 42 | 96 | 209 |  |  |  |  | 8 | 
